The test system of experiment [1] is Human HT-29 cells. Description: Necroptosis inhibition assay in HT-29 cells (hTNFα + zVAD + SMAC mimetic, Sytox Green/Hoechst). Type of experiment: cell-based. Particulars: 10 ng/ml hTNFα, 20 μM zVAD and 100 nM SMAC mimetic, 6 hours, Sytox/Hoechst positive cells, read-out: HT29 necroptosis inhibition IC50. On the procedure: Human HT-29 cells (ATCC-HTB-38) were seeded at 10,000 cells/well in a 96-well plate. Cells were treated 48 hours after seeding with 10 ng/ml hTNFα (R&D Systems), 20 μM zVAD (ChemShuttle) and 100 nM SMAC mimetic (MedChem Express) in the presence of different concentrations of compounds ranging from […] to 0.01 μM. Cells treated with 0.1% DMSO or cells treated with TNFα+zVAD+SMAC mimetic were used as control and vehicle respectively.
Assay plates containing cells were incubated for 6 hours at 37° C. and 5% CO2. Necroptosis was assessed using Sytox Green Nucleic Acid Stain (Invitrogen) and Hoechst staining. After incubation, 100 μL of Sytox dye at 2 μM (2×) diluted in HBSS 1× was added to each well. At the same time, Hoechst stain is added to a final concentration of 10 μM and incubated for 15 min at room temperature. Images were taken for Sytox and Hoechst using the Cytation 5 microplate reader with DAPI and GFP filter cubes (Biotek). Sytox and Hoechst positive cells were counted with CellProfiler software.
(§1) Percentage of necroptosis inhibition was calculated as the percent compared to control and vehicle conditions which correspond to 100% and 0% respectively. The half-maximum necroptosis inhibition (IC50) levels were calculated using GraphPad Prism software and are shown in Table 3 (NT represents compound not tested).

The subject of experiment [2] is Murine L929 cells. Description: Necroptosis inhibition assay in L929 cells (mTNFα + zVAD, Sytox Green). Type of experiment: cell-based. Particulars: Mus musculus, 10 ng/ml mTNFα and 20 μM zVAD, 6 hours, Sytox Green fluorescence. On the procedure: Murine L929 cells (ATCC-CCL-1) were seeded at 10,000 cells/well in a 96-well plate. Cells were treated 48 hours after seeding with 10 ng/ml mTNFα (R&D Systems) and 20 μM zVAD (ChemShuttle) in the presence of different concentrations of compounds ranging from […] to 0.01 μM. Cells treated with 0.1% DMSO or cells treated with TNFα+zVAD were used as control and vehicle respectively.
Assay plates containing cells were incubated for 6 hours at 37° C. and 5% CO2. Necroptosis was assessed using Sytox Green Nucleic Acid Stain (Invitrogen). After incubation, 100 μL of Sytox dye at 2 μM (2×) diluted in HBSS 1× was added in each well and incubated for 15 min at room temperature. Fluorescence (500ex/530em) was recorded using the Cytation 5 microplate reader (Biotek).
as §1

Some results are limits rather than exact numbers.

The IC50 is the midpoint of a concentration-inhibition curve. With `O=C(c1ccc(-c2ccc3c(Nc4ccc5scnc5c4)ccnc3c2)c(F)c1)N1CCNCC1` [Compound 250, (4-(4-(benzo[d]thiazol-5-ylamino)quinolin-7-yl)-3-fluorophenyl)(piperazin-1-yl)methanone], the results for the IC50 in experiment [1] and in experiment [2] were 2530 nM and 344 nM, respectively. On to `O=C(c1ccc(-c2ccc3nccc(Nc4ccc5scnc5c4)c3c2)c(F)c1)N1CC2(CCOCC2)C1` [Compound 251, (4-(4-(benzo[d]thiazol-5-ylamino)quinolin-6-yl)-3-fluorophenyl)(7-oxa-2-azaspiro[3.5]nonan-2-yl)methanone], for which the figures for the 50% inhibitory concentration (IC50) in experiment [1] and in experiment [2] were 822 nM and 582 nM, respectively. Take `O=C(c1ccc(-c2ccc3c(Nc4ccc5scnc5c4)ccnc3c2)c(F)c1)N1CC2(CCOCC2)C1` [Compound 252, (4-(4-(benzo[d]thiazol-5-ylamino)quinolin-7-yl)-3-fluorophenyl)(7-oxa-2-azaspiro[3.5]nonan-2-yl)methanone]: the IC50 is 244 nM in experiment [1] and 260 nM in experiment [2]. The matching figures for `c1cc(Nc2ccc3scnc3c2)c2ccc(-c3ccc(C4CCNCC4)cc3)cc2n1` [Compound 253, N-(7-(4-(piperidin-4-yl)phenyl)quinolin-4-yl)benzo[d]thiazol-5-amine]: 755 nM and 271 nM. Regarding `O=C1CN(Cc2ccc(-c3ccc4nccc(Nc5ccc6sccc6c5)c4c3)c(F)c2)CCN1` [Compound 256, 4-(4-(4-(benzo[b]thiophen-5-ylamino)quinolin-6-yl)-3-fluorobenzyl)piperazin-2-one], the IC50 in experiment [2] was more than 10000 nM. Consider `O=C1CN(Cc2ccc(-c3ccc4nccc(Nc5ccc6[nH]ncc6c5)c4c3)c(F)c2)CCN1` [Compound 271, 4-(4-(4-(1H-indazol-5-ylamino)quinolin-6-yl)-3-fluorobenzyl)piperazin-2-one], for which the IC50 in experiment [2] was more than 10000 nM.

For `CN1CCN(C(=O)c2ccc(-c3ccc4nccc(Nc5ccc6scnc6c5)c4c3)c(F)c2)CC1=O` [Compound 273, 4-(4-(4-(benzo[d]thiazol-5-ylamino)quinolin-6-yl)-3-fluorobenzoyl)-1-methylpiperazin-2-one], the 50% inhibitory concentration (IC50) in experiment [1] was found to be 780 nM; in experiment [2], 1100 nM. The matching figures for `CN1CCN(C(=O)c2ccc(-c3ccc4c(Nc5ccc6scnc6c5)ccnc4c3)c(F)c2)CC1=O` [Compound 274, 4-(4-(4-(benzo[d]thiazol-5-ylamino)quinolin-7-yl)-3-fluorobenzoyl)-1-methylpiperazin-2-one]: 1190 nM and 515 nM.

Consider `O=C1CN(C(=O)c2ccc(-c3ccc4nccc(Nc5ccc6scnc6c5)c4c3)c(F)c2)CCN1` [Compound 275, 4-(4-(4-(benzo[d]thiazol-5-ylamino)quinolin-6-yl)-3-fluorobenzoyl)piperazin-2-one], for which the results for the half-inhibitory concentration (IC50) in experiment [1] and in experiment [2] were 689 nM and 3820 nM, respectively. The matching figures for `CC1CN(C(=O)c2ccc(-c3ccc4nccc(Nc5ccc6scnc6c5)c4c3)c(F)c2)CCN1` (centres unmarked) [Compound 286, (4-(4-(benzo[d]thiazol-5-ylamino)quinolin-6-yl)-3-fluorophenyl)(3-methylpiperazin-1-yl)methanone]: 75.8 nM and 852 nM. Regarding `O=C1CN(Cc2ccc(-c3ccc4nccc(Nc5ccc6occc6c5)c4c3)c(F)c2)CCN1` [Compound 287, 4-(4-(4-(benzofuran-5-ylamino)quinolin-6-yl)-3-fluorobenzyl)piperazin-2-one], in experiment [2], the IC50 was more than 10000 nM.

As for `Cn1ncc2cc(Nc3ccnc4ccc(-c5ccc(CN6CCNC(=O)C6)cc5F)cc34)ccc21` [Compound 288, 4-(3-fluoro-4-(4-(1-methyl-1H-indazol-5-ylamino)quinolin-6-yl)benzyl)piperazin-2-one], the 50% inhibitory concentration (IC50) in experiment [2] is more than 10000 nM. Consider `O=C1CN(Cc2ccc(-c3ccc4nccc(Nc5ccc6oncc6c5)c4c3)c(F)c2)CCN1` [Compound 289, 4-(4-(4-(benzo[d]isoxazol-5-ylamino)quinolin-6-yl)-3-fluorobenzyl)piperazin-2-one], for which the IC50 in experiment [2] was more than 10000 nM. Consider `O=C(c1ccc(-c2ccc3nccc(Nc4ccc5scnc5c4)c3c2)nc1)N1CC2(CNC2)C1` [Compound 294, (6-(4-(benzo[d]thiazol-5-ylamino)quinolin-6-yl)pyridin-3-yl)(2,6-diazaspiro[3.3]heptan-2-yl)methanone], for which the IC50 in experiment [2] is more than 10000 nM. Still for that read-out and setting: the same measure for `O=C(c1ccc(-c2ccc3nccc(Nc4ccc5scnc5c4)c3c2)c(F)c1)N1CC2CNCC2C1` (centres unmarked) [Compound 298, (4-(4-(benzo[d]thiazol-5-ylamino)quinolin-6-yl)-3-fluorophenyl)(hexahydropyrrolo[3,4-c]pyrrol-2(1H)-yl)methanone]: less than 10000 nM. Same read-out and setting: the same measure for `O=C(c1ccc(-c2ccc3c(Nc4ccc5scnc5c4)ccnc3c2)c(F)c1)N1CC2CNCC2C1` (centres unmarked) [Compound 302, (4-(4-(benzo[d]thiazol-5-ylamino)quinolin-7-yl)-3-fluorophenyl)(hexahydropyrrolo[3,4-c]pyrrol-2(1H)-yl)methanone]: less than 10000 nM; for `O=C(c1ccc(-c2ccc3nccc(Nc4ccc5scnc5c4)c3c2)c(F)c1)N1C[C@H]2C[C@@H](C1)N2` [Compound 304, (4-(4-(benzo[d]thiazol-5-ylamino)quinolin-6-yl)-3-fluorophenyl)((1R,5S)-3,6-diazabicyclo[3.1.1]heptan-3-yl)methanone]: less than 10000 nM; for `O=C(c1ccc(-c2ccc3nccc(Nc4ccc5scnc5c4)c3c2)c(F)c1)N1[C@@H]2CNC[C@H]1C2` [Compound 308, (4-(4-(benzo[d]thiazol-5-ylamino)quinolin-6-yl)-3-fluorophenyl)((1R,5S)-3,6-diazabicyclo[3.1.1]heptan-6-yl)methanone]: less than 10000 nM.

Consider `Fc1cc(OC2CCNCC2)ccc1-c1ccc2c(Nc3ccc4scnc4c3)ccnc2c1` [Compound 309, N-(7-(2-fluoro-4-(piperidin-4-yloxy)phenyl)quinolin-4-yl)benzo[d]thiazol-5-amine], for which the IC50 in experiment [2] is less than 10000 nM. For `O=C(c1ccc(-c2ccc3c(Nc4ccc5scnc5c4)ccnc3c2)c(F)c1)N1CCC2(CCNC2)CC1` [Compound 314, (4-(4-(benzo[d]thiazol-5-ylamino)quinolin-7-yl)-3-fluorophenyl)(2,8-diazaspiro[4.5]decan-8-yl)methanone], in experiment [2], the IC50 was less than 10000 nM.

Consider `Fc1cc(CN2CCNCC2)ccc1-c1ccc2nccc(Nc3ccc4sccc4c3)c2c1` [Compound 385, N-(benzo[b]thiophen-5-yl)-6-(2-fluoro-4-(piperazin-1-ylmethyl)phenyl)quinolin-4-amine], for which, in experiment [2], the IC50 is more than 10000 nM. On the same count and under the same terms, for `Fc1cc(CN2CCNCC2)ccc1-c1ccc2nccc(Nc3ccc4occc4c3)c2c1` [Compound 386, N-(benzofuran-5-yl)-6-(2-fluoro-4-(piperazin-1-ylmethyl)phenyl)quinolin-4-amine] the value was more than 10000 nM; for `Fc1cc(CN2CCNCC2)ccc1-c1ccc2nccc(Nc3ccc4[nH]ncc4c3)c2c1` [Compound 387, 6-(2-fluoro-4-(piperazin-1-ylmethyl)phenyl)-N-(1H-indazol-5-yl)quinolin-4-amine], more than 10000 nM; for `Cn1ncc2cc(Nc3ccnc4ccc(-c5ccc(CN6CCNCC6)cc5F)cc34)ccc21` [Compound 388, 6-(2-fluoro-4-(piperazin-1-ylmethyl)phenyl)-N-(1-methyl-1H-indazol-5-yl)quinolin-4-amine], more than 10000 nM.
